Legend:
[1] = target: Tyrosine-protein kinase Fgr (Homo sapiens) (UniProt P09769); assay: Inhibition of Fgr at 0.1 uM; values are per cent of control
[2] = Inhibition of JNK2a2 at 0.1 uM; conditions: values are per cent of control
[3] = target: Interleukin-1 receptor-associated kinase 1 (Homo sapiens) (UniProt P51617); assay: Inhibition of IRAK1 at 0.1 uM; values are per cent of control
[4] = target: T1, Ephrin type-B receptor 4 (Homo sapiens) (UniProt P54760); assay: Inhibition of EphB4 at 1 uM; values are per cent of control
T1 sequence (whole entry): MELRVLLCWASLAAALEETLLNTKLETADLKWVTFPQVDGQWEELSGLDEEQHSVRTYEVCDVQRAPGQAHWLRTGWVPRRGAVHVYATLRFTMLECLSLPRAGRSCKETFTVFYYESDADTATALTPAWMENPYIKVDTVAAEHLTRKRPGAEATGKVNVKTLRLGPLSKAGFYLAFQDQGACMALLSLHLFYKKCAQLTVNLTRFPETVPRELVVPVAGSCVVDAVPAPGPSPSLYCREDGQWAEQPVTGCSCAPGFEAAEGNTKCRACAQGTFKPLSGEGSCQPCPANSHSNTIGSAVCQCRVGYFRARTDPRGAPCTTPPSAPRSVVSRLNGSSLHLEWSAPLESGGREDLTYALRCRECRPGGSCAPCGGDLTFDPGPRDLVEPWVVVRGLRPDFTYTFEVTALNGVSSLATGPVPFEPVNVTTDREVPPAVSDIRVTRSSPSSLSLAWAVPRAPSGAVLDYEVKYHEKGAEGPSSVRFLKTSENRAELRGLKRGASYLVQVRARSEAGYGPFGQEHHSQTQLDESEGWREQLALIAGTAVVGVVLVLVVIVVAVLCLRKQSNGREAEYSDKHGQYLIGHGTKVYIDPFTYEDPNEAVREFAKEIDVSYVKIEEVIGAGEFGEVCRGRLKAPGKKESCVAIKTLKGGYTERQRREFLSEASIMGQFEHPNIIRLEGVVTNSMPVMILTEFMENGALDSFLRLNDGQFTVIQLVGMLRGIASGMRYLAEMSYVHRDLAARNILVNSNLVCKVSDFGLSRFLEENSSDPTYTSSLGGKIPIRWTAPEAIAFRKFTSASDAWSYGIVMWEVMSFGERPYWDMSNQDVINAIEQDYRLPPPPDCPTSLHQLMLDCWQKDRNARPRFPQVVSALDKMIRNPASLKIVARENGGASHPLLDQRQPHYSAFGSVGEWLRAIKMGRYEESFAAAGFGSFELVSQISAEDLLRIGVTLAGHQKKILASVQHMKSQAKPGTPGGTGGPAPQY

[5] = target: Serine/threonine-protein kinase pim-2 (Homo sapiens) (UniProt Q9P1W9); assay: Inhibition of Pim-2 at 1 uM; values are per cent of control
[6] = target: Tyrosine-protein kinase Lyn (Homo sapiens) (UniProt P07948); assay: Inhibition of Lyn at 0.1 uM; values are per cent of control
Sequence of Tyrosine-protein kinase Lyn (Homo sapiens) (P07948 2-512 limits assumed): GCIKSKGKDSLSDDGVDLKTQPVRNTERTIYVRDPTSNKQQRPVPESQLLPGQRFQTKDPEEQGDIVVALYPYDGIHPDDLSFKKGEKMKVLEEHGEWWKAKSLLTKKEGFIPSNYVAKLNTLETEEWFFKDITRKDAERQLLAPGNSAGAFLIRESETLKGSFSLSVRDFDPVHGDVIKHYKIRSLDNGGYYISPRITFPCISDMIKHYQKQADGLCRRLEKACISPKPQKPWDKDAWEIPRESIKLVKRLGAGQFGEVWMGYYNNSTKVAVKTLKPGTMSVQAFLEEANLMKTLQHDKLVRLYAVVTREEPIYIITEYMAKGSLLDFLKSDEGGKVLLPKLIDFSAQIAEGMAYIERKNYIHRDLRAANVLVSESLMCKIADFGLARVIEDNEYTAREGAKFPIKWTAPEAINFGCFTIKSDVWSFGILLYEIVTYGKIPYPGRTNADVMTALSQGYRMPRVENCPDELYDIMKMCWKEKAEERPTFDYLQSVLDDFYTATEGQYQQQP

[7] = target: Ribosomal protein S6 kinase beta-1 (Homo sapiens) (UniProt P23443); assay: Inhibition of p70S6K at 1 uM
Sequence of Ribosomal protein S6 kinase beta-1 (Homo sapiens) (P23443 whole entry, looked up): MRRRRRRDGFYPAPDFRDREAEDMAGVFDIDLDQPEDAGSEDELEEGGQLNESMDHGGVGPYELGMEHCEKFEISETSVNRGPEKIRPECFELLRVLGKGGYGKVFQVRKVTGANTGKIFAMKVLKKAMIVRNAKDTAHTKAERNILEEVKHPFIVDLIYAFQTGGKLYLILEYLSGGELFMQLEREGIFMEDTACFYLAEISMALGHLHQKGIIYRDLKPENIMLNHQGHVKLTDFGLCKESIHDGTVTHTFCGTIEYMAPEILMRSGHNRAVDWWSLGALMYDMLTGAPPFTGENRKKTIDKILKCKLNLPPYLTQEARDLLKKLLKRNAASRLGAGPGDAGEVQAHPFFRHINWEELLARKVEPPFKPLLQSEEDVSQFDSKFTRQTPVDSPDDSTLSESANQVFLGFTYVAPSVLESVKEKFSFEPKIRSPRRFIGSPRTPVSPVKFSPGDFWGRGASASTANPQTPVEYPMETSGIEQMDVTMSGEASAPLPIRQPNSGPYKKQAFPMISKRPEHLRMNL

[8] = target: T2, Interleukin-1 receptor-associated kinase 4 (Homo sapiens) (UniProt Q9NWZ3); assay: Inhibition of IRAK4 at 0.1 uM; values are per cent of control
T2 sequence (whole entry): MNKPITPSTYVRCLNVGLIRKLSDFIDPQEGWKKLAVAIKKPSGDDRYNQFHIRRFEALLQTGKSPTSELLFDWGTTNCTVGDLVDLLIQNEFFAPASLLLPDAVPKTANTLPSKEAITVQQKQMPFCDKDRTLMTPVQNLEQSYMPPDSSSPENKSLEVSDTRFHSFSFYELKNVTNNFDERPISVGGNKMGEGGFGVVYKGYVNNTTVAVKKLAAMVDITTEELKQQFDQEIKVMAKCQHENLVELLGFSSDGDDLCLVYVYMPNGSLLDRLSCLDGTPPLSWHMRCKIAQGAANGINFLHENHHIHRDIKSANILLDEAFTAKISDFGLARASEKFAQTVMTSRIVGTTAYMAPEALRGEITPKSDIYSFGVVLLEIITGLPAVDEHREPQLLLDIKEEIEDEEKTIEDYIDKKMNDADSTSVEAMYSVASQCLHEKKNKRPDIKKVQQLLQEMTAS

[9] = target: Macrophage colony-stimulating factor 1 receptor (Homo sapiens) (UniProt P07333); assay: Inhibition of Fms at 1 uM; values are per cent of control
Sequence of Macrophage colony-stimulating factor 1 receptor (Homo sapiens) (P07333 whole entry): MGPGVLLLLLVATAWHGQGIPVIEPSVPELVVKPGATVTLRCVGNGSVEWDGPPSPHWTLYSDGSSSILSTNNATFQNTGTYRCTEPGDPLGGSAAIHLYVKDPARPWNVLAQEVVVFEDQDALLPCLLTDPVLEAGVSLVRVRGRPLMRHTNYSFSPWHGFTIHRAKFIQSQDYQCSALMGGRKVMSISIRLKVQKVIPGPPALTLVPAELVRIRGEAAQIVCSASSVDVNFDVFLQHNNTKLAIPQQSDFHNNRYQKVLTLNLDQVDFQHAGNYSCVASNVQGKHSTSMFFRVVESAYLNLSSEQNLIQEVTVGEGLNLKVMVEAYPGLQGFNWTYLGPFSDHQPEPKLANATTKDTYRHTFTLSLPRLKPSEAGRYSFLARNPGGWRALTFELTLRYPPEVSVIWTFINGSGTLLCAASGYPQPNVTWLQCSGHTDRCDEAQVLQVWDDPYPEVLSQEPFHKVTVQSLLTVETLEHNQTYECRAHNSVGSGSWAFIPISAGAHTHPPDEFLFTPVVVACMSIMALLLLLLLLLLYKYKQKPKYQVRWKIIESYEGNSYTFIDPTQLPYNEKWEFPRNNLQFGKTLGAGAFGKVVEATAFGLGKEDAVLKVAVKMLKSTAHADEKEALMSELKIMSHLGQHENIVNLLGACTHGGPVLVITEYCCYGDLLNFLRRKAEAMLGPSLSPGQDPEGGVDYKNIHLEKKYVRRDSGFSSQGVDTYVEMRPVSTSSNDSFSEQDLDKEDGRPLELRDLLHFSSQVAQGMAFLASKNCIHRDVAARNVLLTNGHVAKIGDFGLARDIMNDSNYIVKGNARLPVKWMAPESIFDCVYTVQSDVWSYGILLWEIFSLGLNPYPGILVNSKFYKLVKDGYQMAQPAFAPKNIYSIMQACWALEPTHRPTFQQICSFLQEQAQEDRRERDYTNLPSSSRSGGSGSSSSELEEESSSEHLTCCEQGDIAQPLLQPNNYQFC

[10] = target: Ephrin type-A receptor 2 (Homo sapiens) (UniProt P29317); assay: Inhibition of EphA2 at 0.1 uM; values are per cent of control
Sequence of Ephrin type-A receptor 2 (Homo sapiens) (P29317 whole entry): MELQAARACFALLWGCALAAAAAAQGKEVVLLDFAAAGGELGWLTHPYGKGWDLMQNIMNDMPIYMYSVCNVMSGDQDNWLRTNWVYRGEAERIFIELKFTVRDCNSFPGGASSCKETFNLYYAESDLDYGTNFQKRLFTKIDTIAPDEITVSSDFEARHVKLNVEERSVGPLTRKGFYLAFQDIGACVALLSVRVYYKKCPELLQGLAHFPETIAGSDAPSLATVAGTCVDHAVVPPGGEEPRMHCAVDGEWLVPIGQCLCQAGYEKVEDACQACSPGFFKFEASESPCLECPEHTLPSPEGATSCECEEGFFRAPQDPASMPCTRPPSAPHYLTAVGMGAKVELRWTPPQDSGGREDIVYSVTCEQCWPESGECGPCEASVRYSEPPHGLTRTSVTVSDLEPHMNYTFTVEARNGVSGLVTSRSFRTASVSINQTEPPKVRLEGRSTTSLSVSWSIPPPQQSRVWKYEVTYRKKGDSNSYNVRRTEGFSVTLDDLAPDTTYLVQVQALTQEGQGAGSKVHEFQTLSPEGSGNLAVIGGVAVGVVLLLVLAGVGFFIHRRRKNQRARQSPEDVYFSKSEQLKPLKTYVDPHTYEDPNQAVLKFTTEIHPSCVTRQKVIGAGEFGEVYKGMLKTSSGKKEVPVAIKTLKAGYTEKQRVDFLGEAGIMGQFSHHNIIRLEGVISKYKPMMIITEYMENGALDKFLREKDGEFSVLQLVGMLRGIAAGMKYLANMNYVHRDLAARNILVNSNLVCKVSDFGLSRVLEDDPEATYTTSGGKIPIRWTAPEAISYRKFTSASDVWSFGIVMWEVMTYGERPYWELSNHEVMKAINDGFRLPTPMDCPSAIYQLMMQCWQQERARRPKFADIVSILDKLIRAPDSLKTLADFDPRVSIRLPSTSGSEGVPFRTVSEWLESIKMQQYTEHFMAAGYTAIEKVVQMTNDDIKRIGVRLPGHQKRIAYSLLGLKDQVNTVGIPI

[11] = target: Ribosomal protein S6 kinase alpha-1 (Homo sapiens) (UniProt Q15418); assay: Inhibition of Rsk1 at 1 uM
Sequence of Ribosomal protein S6 kinase alpha-1 (Homo sapiens) (Q15418 whole entry): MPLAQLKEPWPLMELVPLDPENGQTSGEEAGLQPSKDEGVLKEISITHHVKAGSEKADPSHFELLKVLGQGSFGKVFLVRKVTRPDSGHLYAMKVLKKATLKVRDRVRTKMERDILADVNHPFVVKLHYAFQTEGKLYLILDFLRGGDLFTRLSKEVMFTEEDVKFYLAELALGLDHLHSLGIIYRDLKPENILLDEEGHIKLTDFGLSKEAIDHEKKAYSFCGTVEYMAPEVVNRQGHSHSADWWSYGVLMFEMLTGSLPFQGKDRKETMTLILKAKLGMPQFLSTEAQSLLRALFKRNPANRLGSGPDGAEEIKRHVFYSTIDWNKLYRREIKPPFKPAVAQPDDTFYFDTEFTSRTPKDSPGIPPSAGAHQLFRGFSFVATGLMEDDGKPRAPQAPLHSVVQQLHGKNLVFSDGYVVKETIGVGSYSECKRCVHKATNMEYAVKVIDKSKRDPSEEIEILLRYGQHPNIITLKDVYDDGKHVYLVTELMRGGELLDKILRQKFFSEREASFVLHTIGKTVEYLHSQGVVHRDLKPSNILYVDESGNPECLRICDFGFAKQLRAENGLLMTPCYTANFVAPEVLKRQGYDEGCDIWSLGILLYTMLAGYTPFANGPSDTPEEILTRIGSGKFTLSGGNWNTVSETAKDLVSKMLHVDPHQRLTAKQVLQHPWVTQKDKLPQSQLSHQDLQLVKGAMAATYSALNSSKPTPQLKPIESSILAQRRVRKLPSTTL

Sequence of Interleukin-1 receptor-associated kinase 1 (Homo sapiens) (P51617 whole entry, looked up): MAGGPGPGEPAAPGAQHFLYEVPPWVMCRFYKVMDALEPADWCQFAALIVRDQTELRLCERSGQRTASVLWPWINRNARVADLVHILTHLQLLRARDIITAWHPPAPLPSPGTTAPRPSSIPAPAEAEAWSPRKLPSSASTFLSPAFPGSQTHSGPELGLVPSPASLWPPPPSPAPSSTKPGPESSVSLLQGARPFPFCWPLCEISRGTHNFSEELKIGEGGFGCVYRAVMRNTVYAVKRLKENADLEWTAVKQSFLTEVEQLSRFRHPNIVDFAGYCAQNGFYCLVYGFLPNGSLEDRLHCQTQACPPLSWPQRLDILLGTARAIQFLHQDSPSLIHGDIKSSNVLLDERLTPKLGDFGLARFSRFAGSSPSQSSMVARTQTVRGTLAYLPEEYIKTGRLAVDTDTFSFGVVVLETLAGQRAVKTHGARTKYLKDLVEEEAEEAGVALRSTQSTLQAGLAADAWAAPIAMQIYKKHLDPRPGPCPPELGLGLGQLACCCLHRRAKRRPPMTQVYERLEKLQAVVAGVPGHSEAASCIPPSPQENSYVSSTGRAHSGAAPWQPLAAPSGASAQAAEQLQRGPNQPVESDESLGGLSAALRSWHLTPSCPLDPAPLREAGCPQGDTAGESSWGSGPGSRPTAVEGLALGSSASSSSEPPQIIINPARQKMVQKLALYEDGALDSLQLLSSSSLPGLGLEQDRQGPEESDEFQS
Sequence of Tyrosine-protein kinase Fgr (Homo sapiens) (P09769 2-529 limits assumed): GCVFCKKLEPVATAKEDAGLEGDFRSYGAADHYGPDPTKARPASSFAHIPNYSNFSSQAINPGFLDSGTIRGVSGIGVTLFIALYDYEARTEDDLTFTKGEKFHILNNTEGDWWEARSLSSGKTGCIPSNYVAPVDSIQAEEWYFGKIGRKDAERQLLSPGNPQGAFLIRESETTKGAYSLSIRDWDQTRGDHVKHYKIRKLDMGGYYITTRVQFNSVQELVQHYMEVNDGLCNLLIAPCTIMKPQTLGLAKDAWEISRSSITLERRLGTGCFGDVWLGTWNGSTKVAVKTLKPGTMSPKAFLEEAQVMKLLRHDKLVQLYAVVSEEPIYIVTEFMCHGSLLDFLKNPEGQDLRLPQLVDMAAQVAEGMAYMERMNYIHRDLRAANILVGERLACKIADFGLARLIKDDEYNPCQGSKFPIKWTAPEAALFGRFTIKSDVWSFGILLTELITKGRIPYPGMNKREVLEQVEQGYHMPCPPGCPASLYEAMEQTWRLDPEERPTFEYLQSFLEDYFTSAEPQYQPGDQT

Cc1ccc2cc(-c3n[nH]c4ccc(NC5CCN(Cc6ccccc6)CC5)cc34)[nH]c2c1
residual activity [1]: 2%
residual activity [2]: 93%
residual activity [3]: 47%
residual activity [4]: 92%
residual activity [5]: 101%
residual activity [6]: 15%
inhibition [7]: 10%
residual activity [8]: 25%
residual activity [9]: 20%
residual activity [10]: 25%
inhibition [11]: 1%

Cc1ccc2cc(-c3n[nH]c4ccc(NC5CCNC5)cc34)[nH]c2c1 (configuration not stated)
residual activity [1]: 0%
residual activity [2]: 103%
residual activity [3]: 56%
residual activity [4]: 62%
residual activity [5]: 105%
residual activity [6]: 1%
inhibition [7]: 16%
residual activity [8]: 6%
residual activity [9]: 10%
residual activity [10]: 47%
inhibition [11]: -1%
